These results are taken from US9127003B2, “2-(azaindol-2-yl)benzimidazoles as PAD4 inhibitors” (Glaxo Group Limited, priority 2012, dated 2015).

The structures appear in SMILES notation. Where “and” joins values, the source holds several entries; their conditions need not be identical. Equal values may be shown once. Where a name gives a salt, the structure may show the parent alone.

T1 sequence (Q9UM07 whole entry, the tested form may be a part): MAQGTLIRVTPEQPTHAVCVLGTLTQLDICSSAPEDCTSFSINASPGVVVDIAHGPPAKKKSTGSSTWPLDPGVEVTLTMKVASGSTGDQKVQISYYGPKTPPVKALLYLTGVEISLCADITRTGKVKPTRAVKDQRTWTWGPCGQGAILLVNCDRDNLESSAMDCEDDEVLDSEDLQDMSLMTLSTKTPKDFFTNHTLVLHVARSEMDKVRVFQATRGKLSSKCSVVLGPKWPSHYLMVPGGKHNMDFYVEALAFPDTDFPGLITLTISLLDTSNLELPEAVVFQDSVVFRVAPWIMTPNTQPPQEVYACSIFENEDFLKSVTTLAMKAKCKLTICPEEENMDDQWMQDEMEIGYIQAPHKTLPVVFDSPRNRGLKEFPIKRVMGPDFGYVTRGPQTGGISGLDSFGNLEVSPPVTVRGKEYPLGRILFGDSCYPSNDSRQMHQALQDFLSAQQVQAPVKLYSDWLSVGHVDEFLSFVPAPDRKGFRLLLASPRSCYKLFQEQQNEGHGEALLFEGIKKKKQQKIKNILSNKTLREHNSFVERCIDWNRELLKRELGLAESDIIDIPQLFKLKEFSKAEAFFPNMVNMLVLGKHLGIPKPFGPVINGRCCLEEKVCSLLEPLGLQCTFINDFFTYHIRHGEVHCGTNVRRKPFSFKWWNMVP

The first assay concerns the target T1, Recombinant human PAD4 (residues 1-663) (Homo sapiens, UniProt Q9UM07).
T1 construct: Recombinant human PAD4 (residues 1-663); GST (N, cleaved yes); made in house; host or cells: E. coli
The assay is described as follows: PAD4 enzyme assay (NH3 release, BAEE substrate, fluorescence). The format is biochemical. Particulars: PAD4 enzyme assay above (Conditions A or B) or similar assays; read-out: mean pIC50 (converted). The procedure: Recombinant human PAD4 (residues 1-663) was expressed in E. coli as an N-terminal GST-tagged fusion protein. During purification of the protein, the GST tag was removed by cleavage with PreScission Protease (GE Healthcare). Activity of the final product was determined using a FLINT NH3 release assay.
(§1) 8 μl of PAD4 enzyme diluted to an assay concentration of 75 nm in assay buffer (a).: (100 mM HEPES, 50 mM NaCl, 2 mM DTT and 0.6 mg/mIBSA pH 8), or in assay buffer (b).: (100 mM HEPES, 50 mM NaCl, 2 mM DTT, 7.5% glycerol and 1.5 mM CHAPS pH 8), and added to wells containing 0.1 μl of various concentrations of compound or DMSO vehicle (0.8% final) in a Greiner high volume 384 well black plate. Following 30 mins pre-incubation at room temperature, the reaction was initiated by the addition of 4 μl of substrate buffer containing 3 mM N-a-benzoyl-L-arginine ethyl ester (BAEE), 100 mM HEPES, 50 mM NaCl, 600 uM CaCl2 (2H2O) and 2 mM DTT, pH 8.0. The reaction was stopped after 100 mins with the addition of 38 μl stop/detection buffer containing 50 mM EDTA, 2.6 mM phthalaldehyde and 2.6 mM DTT. Assay incubated at room temperature for 90 mins before measuring fluorescent signal (λex 413/λem 476) on an Envision plate reader (Perkin Elmer Life Sciences, Waltham, Mass., USA)
as §1, with “of 30 nM” for “of 75 nm”, “buffer” for “buffer (a).:”, “mg/mIBSA” for “mg/mIBSA pH 8), or in assay buffer (b).: (100 mM HEPES, 50 mM NaCl, 2 mM DTT, 7.5% glycerol and 1.5 mM CHAPS”, “after 60” for “after 100”, “(λex 405/λem 460)” for “(λex 413/λem 476)”
As to `COc1cc(C(=O)N2C[C@@H](N)CC[C@H]2C)cc2nc(-c3cc4cccnc4n3CC3CC3)n(C)c12` (single isomer, unassigned) [Example 23, ((cis)-5-Amino-2-methylpiperidin-1-yl)(2-(1-(cyclopropylmethyl)-1H-pyrrolo[2,3-b]pyridin-2-yl)-7-methoxy-1-methyl-1H-benzo[d]imidazol-5-yl)methanone, hydrochloride], the IC50 is 31.6 to 10000 nM. With `COc1cc(C(=O)N2C[C@H](N)CC[C@@H]2C)cc2nc(-c3cc4cccnc4n3CC3CC3)n(C)c12` (single isomer, unassigned) [Example 24, ((cis)-5-Amino-2-methylpiperidin-1-yl)(2-(1-(cyclopropylmethyl)-1H-pyrrolo[2,3-b]pyridin-2-yl)-7-methoxy-1-methyl-1H-benzo[d]imidazol-5-yl)methanone, hydrochloride], the IC50 is 31.6 to 10000 nM.

For the compound `CCn1c(-c2nc3cc(C(=O)N4CCCC(N)C4)ccc3n2C)cc2cnccc21` (stereo not drawn) [Example 1, 1-{[2-(1-Ethyl-1H-pyrrolo[3,2-c]pyridin-2-yl)-1-methyl-1H-benzimidazol-5-yl]carbonyl}-3-piperidinamine], the IC50 was 31.6 to 10000 nM. Same read-out and setting: for `CCn1c(-c2nc3cc(C(=O)N4CCC[C@@H](N)C4)ccc3n2C)cc2cccnc21` [Example 2A, (R)-(3-Aminopiperidin-1-yl)(2-(1-ethyl-1H-pyrrolo[2,3-b]pyridin-2-yl)-1-methyl-1H-benzo[d]imidazol-5-yl)methanone] the value was 31.6 to 10000 nM; for `CCn1c(-c2nc3cc(C(=O)N4CCC[C@@H](N)C4)ccc3n2C)cc2ccncc21` [Example 3, (R)-(3-Aminopiperidin-1-yl)(2-(1-ethyl-1H-pyrrolo[2,3-c]pyridin-2-yl)-1-methyl-1H-benzo[d]imidazol-5-yl)methanone], 31.6 to 10000 nM; for `Cn1c(-c2cc3cccnc3n2CC(F)(F)F)nc2cc(C(=O)N3CCC[C@@H](N)C3)ccc21` [Example 4A, (R)-(3-Aminopiperidin-1-yl)(1-methyl-2-(1-(2,2,2-trifluoroethyl)-1H-pyrrolo[2,3-b]-pyridin-2-yl)-1H-benzo[d]imidazol-5-yl)methanone], 31.6 to 10000 nM. The same measure, in the same setting: the result for `Cn1c(-c2cc3cccnc3n2CC2CC2)nc2cc(C(=O)N3CCC[C@@H](N)C3)ccc21` [Example 5B, (R)-(3-Aminopiperidin-1-yl)(2-(1-(cyclopropylmethyl)-1H-pyrrolo[2,3-b]pyridin-2-yl)-1-methyl-1H-benzo[d]imidazol-5-yl)methanone, hydrochloride] reads 31.6 to 10000 nM and 200 nM; that for `CCn1c(-c2nc3cc(C(=O)N4CCC[C@@H](N)C4)ccc3n2C)cc2cc(OC)cnc21` [Example 6, (R)-(3-Aminopiperidin-1-yl)(2-(1-ethyl-5-methoxy-1H-pyrrolo[2,3-b]pyridin-2-yl)-1-methyl-1H-benzo[d]imidazol-5-yl)methanone], 31.6 to 10000 nM; that for `CCn1c(-c2nc3cc(C(=O)N4CCC[C@@H](N)C4)ccc3n2C)cc2cc(OC)ncc21` [Example 7, (R)-(3-Aminopiperidin-1-yl)(2-(1-ethyl-5-methoxy-1H-pyrrolo[2,3-c]pyridin-2-yl)-1-methyl-1H-benzo[d]imidazol-5-yl)methanone], 31.6 to 10000 nM. Still for that read-out and setting: the result for `CCn1c(-c2nc3cc(C(=O)N4CCC[C@@H](N)C4)ccc3n2C)cc2cc(O)cnc21` [Example 8, 2-(5-{[(3R)-3-Amino-1-piperidinyl]carbonyl}-1-methyl-1H-benzimidazol-2-yl)-1-ethyl-1H-pyrrolo[2,3-b]pyridin-5-ol] reads 31.6 to 10000 nM. Turning to `CCn1c(-c2nc3cc(C(=O)N4CCC[C@@H](N)C4)cc(OC)c3n2C)cc2cccnc21` [Example 9A, (R)-(3-Aminopiperidin-1-yl)(2-(1-ethyl-1H-pyrrolo[2,3-b]pyridin-2-yl)-7-methoxy-1-methyl-1H-benzo[d]imidazol-5-yl)methanone], the IC50 was 31.6 to 10000 nM. On to `COc1cc(C(=O)N2CCC[C@@H](N)C2)cc2nc(-c3cc4cccnc4n3CC(F)(F)F)n(C)c12` [Example 11A, (R)-(3-Aminopiperidin-1-yl)(7-methoxy-1-methyl-2-(1-(2,2,2-trifluoroethyl)-1H-pyrrolo[2,3-b]pyridin-2-yl)-1H-benzo[d]imidazol-5-yl)methanone], for which the IC50 is 31.6 to 10000 nM.

Consider `CCn1c(-c2nc3cc(C(=O)N4CCCC(N)C4)ccc3n2C)cc2cccnc21` (stereo not drawn) [Example 12, (3-Aminopiperidin-1-yl)(2-(1-ethyl-1H-pyrrolo[2,3-b]pyridin-2-yl)-1-methyl-1H-benzo[d]imidazol-5-yl)methanone], for which the IC50 is 31.6 to 10000 nM. On to `CCn1c(-c2nc3cc(C(=O)N4CCC[C@@H](N)C4)cc(OC(F)(F)F)c3n2C)cc2cccnc21` [Example 15, (R)-(3-Aminopiperidin-1-yl)(2-(1-ethyl-1H-pyrrolo[2,3-b]pyridin-2-yl)-1-methyl-7-(trifluoromethoxy)-1H-benzo[d]imidazol-5-yl)methanone], for which the IC50 was 31.6 to 10000 nM. Regarding `CCC(C)Cn1c(-c2nc3cc(C(=O)N4CCC[C@@H](N)C4)cc(OC)c3n2C)cc2cccnc21` (stereo partly drawn) [Example 17, ((R)-3-Aminopiperidin-1-yl)(7-methoxy-1-methyl-2-(1-(2-methylbutyl)-1H-pyrrolo[2,3-b]pyridin-2-yl)-1H-benzo[d]imidazol-5-yl)methanone], the IC50 is 31.6 to 10000 nM. On the same count and under the same terms, for `CCn1c(-c2nc3cc(C(=O)N4CCC[C@@H](N)C4)cc(OC)c3n2CCOC)cc2cccnc21` [Example 18, (R)-(3-Aminopiperidin-1-yl)(2-(1-ethyl-1H-pyrrolo[2,34]pyridin-2-yl)-7-methoxy-1-(2-methoxyethyl)-1H-benzo[d]imidazol-5-yl)methanone, hydrochloride] the value was 31.6 to 10000 nM.

`CCn1c(-c2nc3cc(C(=O)N4CCC[C@@H](N)C4)cc(OC)c3n2CC(C)C)cc2cccnc21` [Example 20, (R)-(3-Aminopiperidin-1-yl)(2-(1-ethyl-1H-pyrrolo[2,3-b]pyridin-2-yl)-1-isobutyl-7-methoxy-1H-benzo[d]imidazol-5-yl)methanone, hydrochloride]: the IC50 is 31.6 to 10000 nM. As for `COc1cc(C(=O)N2CCC[C@@H](N)C2)cc2nc(-c3cc4cccnc4n3CC(C)(C)OC)n(C)c12` [Example 21, (R)-(3-Aminopiperidin-1-yl)(7-methoxy-2-(1-(2-methoxy-2-methylpropyl)-1H-pyrrolo[2,3-b]pyridin-2-yl)-1-methyl-1H-benzo[d]imidazol-5-yl)methanone], the IC50 was 31.6 to 10000 nM.

The target in another assay is T2, Recombinant human PAD2 (residues 1-665) (Homo sapiens, UniProt Q9Y2J8).
T2 construct: Recombinant human PAD2 (residues 1-665); 6His-FLAG (N); made in house; host or cells: baculovirus-infected Sf9 insect cells
T2 sequence (Q9Y2J8 whole entry, the tested form may be a part): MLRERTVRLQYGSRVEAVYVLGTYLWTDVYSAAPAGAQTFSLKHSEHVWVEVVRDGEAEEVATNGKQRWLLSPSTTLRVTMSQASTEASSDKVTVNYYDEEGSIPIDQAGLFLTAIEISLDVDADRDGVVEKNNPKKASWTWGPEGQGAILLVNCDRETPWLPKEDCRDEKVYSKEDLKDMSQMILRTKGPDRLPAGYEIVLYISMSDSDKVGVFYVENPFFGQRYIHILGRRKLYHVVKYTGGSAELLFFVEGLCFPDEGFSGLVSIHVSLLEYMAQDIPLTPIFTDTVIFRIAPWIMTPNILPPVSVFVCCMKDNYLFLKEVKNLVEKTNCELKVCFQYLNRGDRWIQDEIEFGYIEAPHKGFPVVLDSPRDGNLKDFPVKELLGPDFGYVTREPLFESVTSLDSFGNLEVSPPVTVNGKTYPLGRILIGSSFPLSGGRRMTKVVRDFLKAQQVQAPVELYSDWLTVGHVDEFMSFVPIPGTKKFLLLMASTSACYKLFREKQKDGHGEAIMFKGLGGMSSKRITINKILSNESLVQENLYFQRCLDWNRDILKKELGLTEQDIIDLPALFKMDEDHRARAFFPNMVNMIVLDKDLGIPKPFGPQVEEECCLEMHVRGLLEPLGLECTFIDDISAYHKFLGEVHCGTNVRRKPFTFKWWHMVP
The assay is described as follows: PAD2 enzyme assay (NH3 release, BAEE substrate, fluorescence). The format is biochemical. Particulars: PAD2 enzyme assay above or similar assays; read-out: mean pIC50 (converted). As to the method:
Recombinant human PAD2 (residues 1-665) was expressed in baculovirus-infected Sf9 insect cells as an N-terminal 6His-FLAG-tagged fusion protein. Activity of the final product was determined using a FLINT NH3 release assay.
8 μl of PAD2 enzyme diluted to an assay concentration of 30 nM in assay buffer (100 mM HEPES, 50 mM NaCl, 2 mM DTT, 7.5% glycerol and 1.5 mM CHAPS pH 8), and added to wells containing 0.1 μl of various concentrations of compound or DMSO vehicle (0.8% final) in a Greiner high volume 384 well black plate. Following 30 mins pre-incubation at room temperature, the reaction was initiated by the addition of 4 μl of substrate buffer containing 180 uM N-a-benzoyl-L-arginine ethyl ester (BAEE), 100 mM HEPES, 50 mM NaCl, 240 uM CaCl2 (2H2O) and 2 mM DTT, pH 8.0. The reaction was stopped after 90 mins with the addition of 38 μl stop/detection buffer containing 50 mM EDTA, 2.6 mM phthalaldehyde and 2.6 mM DTT. Assay incubated at room temperature for 90 mins before measuring fluorescent signal (λex 405/λem 460) on an Envision plate reader (Perkin Elmer Life Sciences, Waltham, Mass., USA)
For `CCn1c(-c2nc3cc(C(=O)N4CCC[C@@H](N)C4)ccc3n2C)cc2cccnc21` [Example 2B, (R)-(3-Aminopiperidin-1-yl)(2-(1-ethyl-1H-pyrrolo[2,3-b]pyridin-2-yl)-1-methyl-1H-benzo[d]imidazol-5-ylmethanone hydrochloride], the IC50 was 63.1 to 79.4 µM. Consider `Cn1c(-c2cc3cccnc3n2CC2CC2)nc2cc(C(=O)N3CCC[C@@H](N)C3)ccc21` [Example 5B, (R)-(3-Aminopiperidin-1-yl)(2-(1-(cyclopropylmethyl)-1H-pyrrolo[2,3-b]pyridin-2-yl)-1-methyl-1H-benzo[d]imidazol-5-yl)methanone, hydrochloride], for which the IC50 is 63.1 to 79.4 µM and > 79.4 µM. Turning to `CCn1c(-c2nc3cc(C(=O)N4CCC[C@@H](N)C4)cc(OC)c3n2C)cc2cccnc21` [Example 9B, (R)-(3-Aminopiperidin-1-yl)(2-(1-ethyl-1H-pyrrolo[2,3-b]pyridin-2-yl)-7-methoxy-1-methyl-1H-benzo[d]imidazol-5-yl)methanone, hydrochloride], the IC50 is 63.1 to 79.4 µM and > 79.4 µM.
